Values of other authors in patent US20110208161A1, “INT[…] […] TO THE CENTRAL NERVOUS SYSTEM” (priority 2009, published 2011).
Where a SMILES comes first, the peptide text is derived from it.

Target: T1, μ receptor (Oryctolagus cuniculus, UniProt G1TAQ8)
T1 construct: host or cells: brain tissue at the fourth ventricle, in vivo
Conditions: infusion into the fourth ventricle

T1 sequence (G1TAQ8 1-401): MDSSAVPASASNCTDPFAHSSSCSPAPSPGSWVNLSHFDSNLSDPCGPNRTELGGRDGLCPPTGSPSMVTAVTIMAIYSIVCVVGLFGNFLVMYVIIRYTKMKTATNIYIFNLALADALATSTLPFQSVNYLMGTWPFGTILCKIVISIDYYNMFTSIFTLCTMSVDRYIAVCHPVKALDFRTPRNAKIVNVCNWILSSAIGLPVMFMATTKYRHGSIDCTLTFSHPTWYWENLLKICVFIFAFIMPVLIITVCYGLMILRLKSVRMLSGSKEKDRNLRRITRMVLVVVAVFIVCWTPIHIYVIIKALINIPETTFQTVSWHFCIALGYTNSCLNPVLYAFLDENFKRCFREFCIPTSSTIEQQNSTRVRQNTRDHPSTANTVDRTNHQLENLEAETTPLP

**Q.** With `NC(=O)[C@@H]1CCCN1C(=O)[C@H](Cc1ccccc1)NC(=O)[C@@H]1CCCN1C(=O)[C@@H](N)Cc1ccc(O)cc1` [morphiceptin] (H-YPFP-NH2) as the compound, how does the “effect on spinal cord nociceptive transmission” value read?
**A.** attenuate spinal cord nociceptive transmission
